# Test results as given in patent publication US11932645B2, “Substituted pyrazolo[1,5-a]pyrimidines and their use in the treatment of medical disorders” (Bial—R&D Investments, S.A., priority 2014, dated 2024).
# Target: T1, glucocerebrosidase (Gcase) (Homo sapiens, UniProt P04062)
# T1 sequence (P04062 40-536): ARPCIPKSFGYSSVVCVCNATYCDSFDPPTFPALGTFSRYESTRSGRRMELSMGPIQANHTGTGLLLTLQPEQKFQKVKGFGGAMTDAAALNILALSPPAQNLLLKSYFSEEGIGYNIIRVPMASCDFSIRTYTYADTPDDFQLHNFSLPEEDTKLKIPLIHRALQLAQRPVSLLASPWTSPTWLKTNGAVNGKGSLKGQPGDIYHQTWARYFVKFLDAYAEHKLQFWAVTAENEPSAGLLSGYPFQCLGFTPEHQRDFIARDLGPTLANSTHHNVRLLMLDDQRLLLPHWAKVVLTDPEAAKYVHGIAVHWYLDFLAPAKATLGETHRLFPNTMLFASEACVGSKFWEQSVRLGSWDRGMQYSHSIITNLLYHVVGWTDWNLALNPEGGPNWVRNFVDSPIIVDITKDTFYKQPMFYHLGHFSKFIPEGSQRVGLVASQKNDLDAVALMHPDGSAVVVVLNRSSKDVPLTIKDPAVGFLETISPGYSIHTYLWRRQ
# Assay: Glucocerebrosidase (Gcase) activation assay, 4-methylumbelliferyl-beta-D-glucopyranoside substrate, with saposin C
# Type: biochemical
# Settings: 10 nM GCase, 100 nM saposin C, pH 4.7
# Protocol: The ability of exemplary compounds to activate glucocerebrosidase (Gcase) was measured.
# A 484 μL aliquot of a 1.0 mg/mL solution of phosphatidylserine (PS) (Sigma P7769) in chloroform was evaporated under a stream of nitrogen for 1 hour. The lipid film was dissolved over 4 minutes of vigorous vortexing in 40 mL of 176 mM K2HPO4/50 mM citric acid (pH 4.7) containing 7.5 μL of triton X-100, resulting in a mixed micellar preparation with a composition of 0.32 mM triton and 0.37 mol % PS. 4-Methylumbelliferyl-beta-D-glucopyranoside (ACROS-337025000) was dissolved in the micellar solution to a final concentration of 2 mM for use as the reaction substrate.
# Test compounds were diluted to the desired concentrations with dimethylsulfoxide (DMSO) from 10 mM stocks, and 0.41 μL of the DMSO compound mixture was added to 100 μL of micellar solution containing 10 nM GCase and 100 nM saposin C (Enzo ALX-201-262-C050). Pre-incubation was allowed to occur for 30 minutes at room temperature, after which the reaction was initiated by combining 25 μL of substrate solution with 25 μL of compound/GCase/saposin mixture. The reaction proceeded for 15 minutes at room temperature and was stopped by adding 150 μL of 1M glycine, pH 12.5. The endpoint of the reaction was monitored by measuring fluorescence intensity (excitation: 365 nm; emission: 440 nm) on a SpectraMax i3 instrument (Molecular Devices). Test compounds were screened at 1.0 and 0.1 μM final concentration, and subsequent 8-point dose response curves were obtained using 3-fold dilutions from a maximum final concentration of 5 μM.
# For experiments in which the test compound was used at a concentration of 1.0 μM, the symbol “+” indicates less than 30% Gcase activation; the symbol “++” indicates Gcase activation in the range of 30% up to 60%; and the symbol “+++” indicates Gcase activation greater than 60%. For experiments in which the test compound was used at a concentration of 0.1 μM, the symbol “*” indicates less than 10% Gcase activation; the symbol “**” indicates Gcase activation in the range of 10% up to 20%; and the symbol “***” indicates greater than 20% Gcase activation.
SMILES,Percent Gcase Activation 0.1 μM Test Compound,Percent Gcase Activation 1 μM Test Compound
Cc1cc(C)n2ncc(CNc3ccc(-c4cocn4)cc3)c2n1 [III-37],* (less than 10% Gcase activation),+ (less than 30% Gcase activation)
Cc1cc(C)n2ncc(C(=O)Nc3ccc(N=[N+]=[N-])cc3)c2n1 [III-38],* (less than 10% Gcase activation),++ (Gcase activation in the range of 30% up to 60%)
Cc1cc(C)n2ncc(C(=O)Nc3ccc(-c4cccs4)cc3)c2n1 [III-39],*** (greater than 20% Gcase activation),+++ (Gcase activation greater than 60%)
Cc1cc(C)n2ncc(C(=O)Nc3ccc4[nH]c(C)cc4c3)c2n1 [III-40],* (less than 10% Gcase activation),+ (less than 30% Gcase activation)
Cc1cc(C)n2ncc(C(=O)Nc3ccc4[nH]ncc4c3)c2n1 [III-41],* (less than 10% Gcase activation),+ (less than 30% Gcase activation)
Cc1cc(C)n2ncc(C(=O)Nc3ccc4nc(C)oc4c3)c2n1 [III-44],* (less than 10% Gcase activation),+ (less than 30% Gcase activation)
Cc1cc(C)n2ncc(C(=O)Nc3ccc4c(c3)CCNC4)c2n1 [III-46],* (less than 10% Gcase activation),+ (less than 30% Gcase activation)
Cc1cc(C)n2ncc(C(=O)Nc3ccc4[nH]c(-c5ccco5)nc4c3)c2n1 [III-49],* (less than 10% Gcase activation),+ (less than 30% Gcase activation)
Cc1cc(C)n2ncc(C(=O)Nc3ccc4nc(C)sc4c3)c2n1 [III-50],* (less than 10% Gcase activation),++ (Gcase activation in the range of 30% up to 60%)
Cc1cc(C)n2ncc(C(=O)Nc3ccc(Cl)c(COc4cccnc4)c3)c2n1 [III-51],** (Gcase activation in the range of 10% up to 20%),+++ (Gcase activation greater than 60%)
Cc1cc(C)n2ncc(C(=O)Nc3ccc(C)c(-c4ncco4)c3)c2n1 [III-52],** (Gcase activation in the range of 10% up to 20%),+++ (Gcase activation greater than 60%)
Cc1cc(C)n2ncc(C(=O)Nc3ccc(Cl)c(-c4cnco4)c3)c2n1 [III-53],** (Gcase activation in the range of 10% up to 20%),+++ (Gcase activation greater than 60%)
Cc1cc(C)n2ncc(C(=O)Nc3ccc(-c4cnn(C)c4)cc3)c2n1 [III-54],* (less than 10% Gcase activation),++ (Gcase activation in the range of 30% up to 60%)
CCCCCO[C@H]1CC[C@H](NC(=O)c2cnn3c(C)cc(C)nc23)CC1 [III-59],** (Gcase activation in the range of 10% up to 20%),+++ (Gcase activation greater than 60%)
COc1ccccc1[C@H](C)NC(=O)c1cnn2c(C)cc(C)nc12 [III-61],** (Gcase activation in the range of 10% up to 20%),+++ (Gcase activation greater than 60%)
COc1ccccc1[C@@H](C)NC(=O)c1cnn2c(C)cc(C)nc12 [III-62],* (less than 10% Gcase activation),+++ (Gcase activation greater than 60%)
Cc1cc(C)n2ncc(C(=O)N[C@@H](C)c3cccc(Cl)c3)c2n1 [III-63],** (Gcase activation in the range of 10% up to 20%),+++ (Gcase activation greater than 60%)
Cc1cc(C)n2ncc(C(=O)N[C@H](C)c3ccc(Cl)cc3)c2n1 [III-64],** (Gcase activation in the range of 10% up to 20%),+++ (Gcase activation greater than 60%)
Cc1cc(C)n2ncc(C(=O)N[C@H](C)c3ccc(F)cc3)c2n1 [III-65],* (less than 10% Gcase activation),++ (Gcase activation in the range of 30% up to 60%)
Cc1cc(C)n2ncc(C(=O)NC(C)(C)c3ccc(Cl)cc3)c2n1 [III-67],** (Gcase activation in the range of 10% up to 20%),+++ (Gcase activation greater than 60%)
Cc1cc(Cl)n2ncc(C(=O)NC(C)(C)c3ccc(Cl)cc3)c2n1 [III-68],** (Gcase activation in the range of 10% up to 20%),+++ (Gcase activation greater than 60%)
Cc1cc(C)n2ncc(C(=O)NC(C)(C)c3ccc(F)cc3F)c2n1 [III-70],** (Gcase activation in the range of 10% up to 20%),+++ (Gcase activation greater than 60%)
CO[C@H]1CC[C@H](C(C)(C)NC(=O)c2cnn3c(C)cc(C)nc23)CC1 [III-71],* (less than 10% Gcase activation),++ (Gcase activation in the range of 30% up to 60%)
CO[C@H]1CC[C@@H](C(C)(C)NC(=O)c2cnn3c(C)cc(C)nc23)CC1 [III-72],* (less than 10% Gcase activation),+++ (Gcase activation greater than 60%)

# Other lines, results leading:
Percent Gcase Activation 0.1 μM Test Compound,Percent Gcase Activation 1 μM Test Compound,SMILES
* (less than 10% Gcase activation),+ (less than 30% Gcase activation),Cc1cc(C)n2ncc(C(=O)Nc3ccc4cn[nH]c4c3)c2n1 [III-42]
* (less than 10% Gcase activation),+ (less than 30% Gcase activation),Cc1cc(C)n2ncc(C(=O)Nc3ccc4nc(C)[nH]c4c3)c2n1 [III-45]
* (less than 10% Gcase activation),+ (less than 30% Gcase activation),Cc1cc(C)n2ncc(C(=O)Nc3ccc4oncc4c3)c2n1 [III-47]
*** (greater than 20% Gcase activation),+++ (Gcase activation greater than 60%),Cc1cc(C)n2ncc(C(=O)Nc3ccc(-c4ccco4)cc3)c2n1 [III-55]
* (less than 10% Gcase activation),+ (less than 30% Gcase activation),Cc1cc(C)n2ncc(C(=O)Nc3ccc(-c4ccncc4)cc3)c2n1 [III-56]
*** (greater than 20% Gcase activation),+++ (Gcase activation greater than 60%),Cc1cc(C)n2ncc(C(=O)NC3CCCc4ccccc43)c2n1 (stereo not shown) [III-58]
* (less than 10% Gcase activation),+++ (Gcase activation greater than 60%),Cc1cc(C)n2ncc(C(=O)N[C@@H](C)c3ccccc3F)c2n1 [III-60]
* (less than 10% Gcase activation),+ (less than 30% Gcase activation),Cc1cc(C)n2ncc(C(=O)NC(C)C3CCC(F)(F)CC3)c2n1 (stereo not shown) [III-66]
*** (greater than 20% Gcase activation),+++ (Gcase activation greater than 60%),Cc1cc(Cl)nc2c(C(=O)NC(C)(C)c3ccc(Cl)cc3)cnn12 [III-69]
* (less than 10% Gcase activation),+ (less than 30% Gcase activation),Cc1cc(C)n2ncc(C(=O)Nc3ccc4c(c3)C(C3=NCCN3)CCC4)c2n1 (stereo not shown) [III-73]
* (less than 10% Gcase activation),+ (less than 30% Gcase activation),C#Cc1ccc(NCc2cnn3c(C)cc(C)cc23)cc1 [III-74]
